Results taken from patent publication US8404650B2, “Methods of treating cancer with doxazolidine and prodrugs thereof” (priority 2005, dated 2013).
Where two headings read alike, the source gives them in different places.

Tested on: H9c2(2-1) rat cardiomyocytes
Assay: Growth inhibition of rat cardiomyocytes as a measure of cardiotoxicity
Type: cell-based
Conditions: for Toxicity to cardiomyocytes compared with Doxorubicin: rat cardiomyocytes; for IC50: Rattus norvegicus
Description: Biological activity of simple Doxazolidine carbamates. Since the prodrug carbamates were designed to be activated by carboxylesterases CES1 (hCE1) and/or CES2 (hiCE), cell lines of interest were measured for expression of the respective mRNAs using reverse transcription (RT) followed by PCR (polymerase chain reaction). Cancer cell lines investigated included SHP-77 resistant small cell lung, DU-145 prostate, MCF-7 sensitive breast, MCF-7/Adr resistant breast, SK-HEP-1 liver, and Hep G2 liver cells. As a measure of possible cardiotoxicity, H9c2(2-1) rat cardiomyocytes were also investigated. Cardiotoxicity is relevant because the ultimate product of metabolism and subsequent hydrolysis of these carbamates is doxorubicin, which is cardiotoxic. […] Additionally, the rat cardiomyocytes, H9c2(2-1), also express more CES2 than CES1.
Cell growth inhibition experiments initially focused on MCF-7, MCF-7/Adr, SK-HEP-1, and Hep G2 cancer cells as well as rat cardiomyocytes as a measure of cardiotoxicity and Vero cells (green monkey kidney cells) as an additional measure of normal cell toxicity. The butyl and pentyl carbamates inhibited the growth of MCF-7, MCF-7/Adr, and SK-HEP-1 cell lines with a 24 h drug treatment period with some selectivity for cancer cells over cardiomyocytes relative to growth inhibition by Dox as shown in Table 2. […] The relative inactivity of the ethyl carbamate may indicate that a substantial lipophilic interaction is required at the active site of the carboxylesterases to hold the Doxaz substrate.
Biological activity of Doxazolidine carbamates with self-eliminating spacer. […] SHP-77 small cell lung cancer cells were also of interest because they express modest amounts of both enzymes. Inhibition of the growth of cardiomyocytes was used as a measure of cardiotoxicity, and inhibition of the growth of Vero cells, green monkey kidney cells, was again used as another measure of toxicity to normal cells. They also show more activity against the cancer cells that express higher levels of CES1. Of particular note is the higher activity against Hep G2 cells than against SK-HEP-1 cells. […] The low toxicity of pentyl PABC-Doxaz to cardiomyocytes relative to the toxicity of Dox is encouraging and consistent with the low level of expression of CES1 in cardiomyocytes.
A more thorough characterization of the growth inhibition of a variety of cancer cells as well as rat cardiomyocytes by Formula IV (aFK-PABC-Doxaz) was evaluated in comparison with inhibition of growth by Doxaz, Dox and aFK-PABC-Dox. Cells were treated with drug for 3 h and colony growth was measured at 3 to 5 days when cells reached about 80% confluence. The cancer cells included one prostate cancer cell line (DU-145), three related breast cancer cell lines (MCF-7, MCF-7/Adr, and MCF-7 uPA), and one pancreatic cancer cell line (Mia PaCa-2). The breast cancer cell lines represent the multi-drug resistant (MDR) phenotype with MCF-7/Adr cells and a cell line that is transfected with the gene for urokinase plasminogen activator (uPA), the primary enzyme responsible for cleavage of plasminogen to plasmin. Rat cardiomyocytes served as a model for comparison of drug cardiotoxicity. Growth inhibition was also measured with added plasmin. aFK-PABC-Doxaz inhibited the growth of most of the cancer cells 0.5 log or more better than did aFK-PABA-Dox. Although not as dramatic, this differential response paralleled the differential response between Doxaz and Dox which is approximately two logs except for the MDR expressing, MCF-7/Adr cells which show more than three logs differential response. […] Addition of 0.01 unit/mL of plasmin has no effect on the activity of Dox but increases the activity of both aFK-PABC-Doxaz and aFK-PABC-Dox, in some cases by more than a log. Addition of 0.01 unit/mL plasminogen increases the activity of aFK-PABC-Doxaz on average by 0.3 log. […]

[1] = H9c2, 3 h, read-out: Growth inhibition IC50, H9c2(2-1), 3 h

Row | Compound | Toxicity to cardiomyocytes compared with Doxorubicin | IC50 [1] | other results
1 | COc1cccc2c1C(=O)c1c(O)c3c(c(O)c1C2=O)C[C@@](O)(C(=O)CO)C[C@@H]3OC1CC2C(OCN2CN2COC3C(C)OC(O[C@H]4C[C@](O)(C(=O)CO)Cc5c(O)c6c(c(O)c54)C(=O)c4c(OC)cccc4C6=O)CC32)C(C)O1 (some centres unmarked) [DoxF, Doxoform, reference compound] | no more toxic to cardiomyocytes than Doxorubicin | – | –
2 | COc1cccc2c1C(=O)c1c(O)c3c(c(O)c1C2=O)C[C@@](O)(C(=O)CO)C[C@@H]3O[C@H]1C[C@@H]2NCO[C@@H]2[C@H](C)O1 [Doxaz, Doxazolidine] | no more cardiotoxic than Doxorubicin | 31.6 nM | –
3 | COc1cccc2c1C(=O)c1c(O)c3c(c(O)c1C2=O)C[C@@](O)(C(=O)CO)C[C@@H]3O[C@H]1C[C@H](N)[C@H](O)[C@H](C)O1 [Doxorubicin, reference compound] | – | 31.6 nM | IC50 (H9c2, 24 h, read-out: Growth inhibition IC50, H9c2(2-1), 24 h): 20 nM; IC50 (H9c2, read-out: IC50 Rat Cardio., top line of the cell): 20 nM
4 | COc1cccc2c1C(=O)c1c(O)c3c(c(O)c1C2=O)C[C@@](O)(C(=O)CO)C[C@@H]3O[C@H]1C[C@H]2[C@H](OCN2C(=O)OCc2ccc(NC(=O)[C@H](CCCCN)NC(=O)[C@H](Cc3ccccc3)NC(=O)[C@@H](C)N)cc2)[C@H](C)O1 [Formula IV, D-Ala-L-Phe-L-Lys-p-aminobenzyloxycarbonyl-Doxaz] | – | – | IC50 (H9c2, read-out: IC50 Rat Cardio. + plasmin): 40 nM
5 | CCCCCOC(=O)Nc1ccc(COC(=O)N2COC3C(C)OC(OC4CC(O)(C(=O)CO)Cc5c(O)c6c(c(O)c54)C(=O)c4c(OC)cccc4C6=O)CC32)cc1 (centres unmarked) [Pentyl PABC-Doxaz, Pentyl 4-(N-doxazolidinylcarbonyloxymethyl)phenylcarbamate] | – | – | Growth inhibition IC50, H9c2(2-1), 24 h (24 h drug treatment, crystal violet): −6.2 ± 0.2 log of the molar concentration
